Read-outs that look alike come from different tables or passages of the source.
How the values were obtained:
[1] = Acid hydrolysis of conjugates; type: physicochemical; conditions: 50% (v/v) glacial acetic acid or 1 N HCl, 80 °C for 8 h
[2] = for Amount in urine collected for 10 h after consumption of cooked beef: Mean ± SD of 3 independent measurements; for % Dose in urine collected for 10 h after consumption of cooked beef: metabolites as % of dose of parent MeIQx or PhIP; for Amount present in urine samples: urine after meat consumption, LOQ ~50 pg/mL; for Amount in urine, Overall mean: mean of 3 days
P450 1A2 [3] = conditions: subjects given furafylline prior to cooked beef; cited from earlier work
[4] = cited from earlier work
P450 1A2 [5] = conditions: human liver microsomes, cited from earlier work
[6] = human, in vivo
human liver UGTs = conditions: human liver microsomes fortified with UDPGA; cited from earlier work

| SMILES | Behaviour under acid hydrolysis conditions [1] | Amount in urine collected for 10 h after consumption of cooked beef ([2]; Subject S-001) | % Dose in urine collected for 10 h after consumption of cooked beef ([2]; Subject S-001) | Amount in urine collected for 10 h after consumption of cooked beef ([2]; Subject S-003) | % Dose in urine collected for 10 h after consumption of cooked beef ([2]; Subject S-003) | Amount in urine collected for 10 h after consumption of cooked beef ([2]; Subject S-005) | % Dose in urine collected for 10 h after consumption of cooked beef ([2]; Subject S-005) | Amount in urine collected for 10 h after consumption of cooked beef ([2]; Subject S-008) | % Dose in urine collected for 10 h after consumption of cooked beef ([2]; Subject S-008) | Amount in urine collected for 10 h after consumption of cooked beef ([2]; Subject S-009) | % Dose in urine collected for 10 h after consumption of cooked beef ([2]; Subject S-009) | Amount in urine collected for 10 h after consumption of cooked beef ([2]; Subject S-012) | % Dose in urine collected for 10 h after consumption of cooked beef ([2]; Subject S-012) | Amount in urine collected for 10 h after consumption of cooked beef ([2]; Subject S-013) | % Dose in urine collected for 10 h after consumption of cooked beef ([2]; Subject S-013) | Amount in urine collected for 10 h after consumption of cooked beef ([2]; Subject S-014) | % Dose in urine collected for 10 h after consumption of cooked beef ([2]; Subject S-014) | Amount in urine collected for 10 h after consumption of cooked beef ([2]; Subject S-015) | % Dose in urine collected for 10 h after consumption of cooked beef ([2]; Subject S-015) | Amount in urine collected for 10 h after consumption of cooked beef ([2]; Subject S-020) | also measured |
| --- | --- | --- | --- | --- | --- | --- | --- | --- | --- | --- | --- | --- | --- | --- | --- | --- | --- | --- | --- | --- | --- |
| Cc1cnc2ccc3c(nc(NS(=O)(=O)O)n3C)c2n1 [MeIQx-N^2-SO3H, N^2-(3,8-dimethylimidazo[4,5-f]quinoxalin-2-yl)-sulfamic acid] | quantitatively hydrolyzed to the parent amines |  |  |  |  |  |  |  |  |  |  |  |  |  |  |  |  |  |  |  |  |
| Cn1c(=NO)n([C@@H]2O[C@H](C(=O)O)[C@@H](O)[C@H](O)[C@H]2O)c2ncc(-c3ccccc3)cc21 [HONH-PhIP-N3-GI, N3-(ß-1-glucosidurony1)-N-hydroxy-2-amino-1-methy1-6-phenylimidazo[4,5-b]pyridine] |  | 238 ± 7.4 ng | 2.6 % Dose | 189 ± 10.6 ng | 2.1 % Dose | 176 ± 4.2 ng | 1.9 % Dose | 222 ± 10.0 ng | 2.5 % Dose | 191 ± 5.5 ng | 2.1 % Dose | 319 ± 6.0 ng | 3.5 % Dose | 179 ± 7.0 ng | 2.0 % Dose | 89.5 ± 3.3 ng | 1.0 % Dose | 216 ± 12.0 ng | 2.4 % Dose | 253 ± 4.9 ng | % Dose in urine collected for 10 h after consumption of cooked beef ([2]; Subject S-020): 2.8 % Dose |
| Cc1cnc2ccc3c(nc(N[C@@H]4O[C@H](C(=O)O)[C@@H](O)[C@H](O)[C@H]4O)n3C)c2n1 [MeIQx-N^2-Gl, N^2-(ß-1-glucosiduronyl)-2-amino-3,8-dimethylimidazo[4,5-f]quinoxaline] | quantitatively hydrolyzed to the parent amines |  |  |  |  |  |  |  |  |  |  |  |  |  |  |  |  |  |  |  |  |
| Cn1c(N[C@@H]2O[C@H](C(=O)O)[C@@H](O)[C@H](O)[C@H]2O)nc2ncc(-c3ccccc3)cc21 [PhIP-N^2-Gl, N^2-(ß-1-glucosidurony1)-2-amino-1-methy1-6-phenylimidazo[4,5-b]pyridine] | quantitatively hydrolyzed to the parent amines |  |  |  |  |  |  |  |  |  |  |  |  |  |  |  |  |  |  |  | Amount present in urine samples [2]: ~ 50 pg/mL |
| Cc1cnc2ccc3c(nc(N)n3C)c2n1 [MeIQx, 2-amino-3,8-dimethylimidazo[4,5-f]quinoxaline] |  | 80.3 ± 2.7 ng | 8.7 % Dose | 26.7 ± 1.6 ng | 2.9 % Dose | 32.4 ± 1.5 ng | 3.5 % Dose | 33.8 ± 1.3 ng | 3.7 % Dose | 45.7 ± 1.4 ng | 5.0 % Dose | 48.3 ± 1.9 ng | 5.2 % Dose | 60.9 ± 3.2 ng | 6.6 % Dose | 20.6 ± 0.9 ng | 2.2 % Dose | 39.2 ± 2.0 ng | 4.2 % Dose | 51.5 ± 2.2 ng | Share of elimination accounted for by P450 1A2 (P450 1A2 [3]): 90%; pKa [4]: 5.94; Amount in urine, Overall mean ([2]; Subject 9): 22.1 pg/mL; Amount in urine, Overall mean ([2]; Subject 14): 10.4 pg/mL; Amount in urine, Overall mean ([2]; Subject 20): 29.2 pg/mL; % Dose in urine collected for 10 h after consumption of cooked beef ([2]; Subject S-020): 5.6 % Dose; Vmax, oxidation of the 8-methyl group to form IQx-8-CH2OH (P450 1A2 [5]): 0.1 nmol/min/mg protein; Vmax, production of HONH-MeIQx (P450 1A2 [5]): 3.9 nmol/ min/mg of protein; Km (P450 1A2 [5]; read-out: Km, oxidation of the 8-methyl group to form IQx-8-CH2OH): 3.1 µM; Km (P450 1A2 [5]; read-out: Km, production of HONH-MeIQx): 15 µM |
| Cn1c(N(O)[C@@H]2O[C@H](C(=O)O)[C@@H](O)[C@H](O)[C@H]2O)nc2ncc(-c3ccccc3)cc21 [HONH-PhIP-N^2-GI, N^2-(ß-1-glucosidurony1)-N-hydroxy-2-amino-1-methy1-6-phenylimidazo[4,5-b]pyridine] |  | 2201 ± 37.3 ng | 24.3 % Dose | 2692 ± 121 ng | 29.7 % Dose | 2112 ± 88.5 ng | 23.3 % Dose | 2198 ± 88.2 ng | 24.3 % Dose | 2009 ± 31.0 ng | 22.2 % Dose | 2621 ± 86.0 ng | 29.0 % Dose | 1848 ± 25.6 ng | 20.4 % Dose | 1274 ± 29.0 ng | 14.1 % Dose | 2067 ± 103 ng | 22.8 % Dose | 2223 ± 15.6 ng | % Dose in urine collected for 10 h after consumption of cooked beef ([2]; Subject S-020): 24.6 % Dose |
| Cn1c(N)nc2ncc(-c3ccc(O)cc3)cc21 [4'-HO-PhIP, 2-amino-1-methyl-6-(4′-hydroxy)-phenylimidazo[4,5-b]pyridine] |  | 20.1 ± 9.9 ng | 0.4 % Dose | 35.0 ± 3.4 ng | 0.7 % Dose | 41.7 ± 0.9 ng | 0.8 % Dose | 27.0 ± 3.8 ng | 0.5 % Dose | 25.2 ± 2.8 ng | 0.5 % Dose | 50.1 ± 2.8 ng | 1.0 % Dose | 37.2 ± 5.2 ng | 0.7 % Dose | 18.4 ± 1.2 ng | 0.4 % Dose | 18.3 ± 2.9 ng | 0.3 % Dose | 38.3 ± 2.5 ng | % Dose in urine collected for 10 h after consumption of cooked beef ([2]; Subject S-020): 0.7 % Dose |
| Cc1cnc2cc3nc(N)n(C)c3cc2n1 [MeIgQx, 2-amino-1,7-dimethylimidazo[4,5-g]quinoxaline] |  |  |  |  |  |  |  |  |  |  |  |  |  |  |  |  |  |  |  |  | Increase in amount in urine following acid hydrolysis [6]: up to 5 fold |
| Cn1c(=N)n([C@@H]2O[C@H](C(=O)O)[C@@H](O)[C@H](O)[C@H]2O)c2ncc(-c3ccccc3)cc21 [PhIP-N3-Gl, N3-(ß-1-glucosidurony1)-2-amino-1-methy1-6-phenylimidazo[4,5-b]pyridine] | stable |  |  |  |  |  |  |  |  |  |  |  |  |  |  |  |  |  |  |  | Amount formed relative to PhIP-N^2-Gl (human liver UGTs): 10 fold; Amount present in urine samples [2]: below the LOQ; Proportion of the conjugate that underwent hydrolysis [1]: < 5% |

From paper PMC3196554 (Chemical research in toxicology, 2010)
